Consider 26 compounds from ChEMBL document CHEMBL1201862, “PubChem BioAssay data set” (2004).

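A five-concentration, 48-hour dose response in 96-well plates underlies each endpoint, interpolated linearly between surrounding concentrations. GI50 is the concentration that inhibits growth by half.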 Calls of active or inactive are those of the source. No stated cut-off is given here; in the data, active = GI50 up to about 1.1 µM and inactive = higher.

Among the test systems are DLD-1; DMS-114; DMS-273; HOP-18; M19-MEL; SNB-78; LXFL 529; XF498; RXF 631.
Common to all, as to experiment: growth of human tumour cells (NCI), 48 h

Consider `COc1ccccc1NS(=O)(=O)c1cc(C(C)(C)C)ccc1OCCOc1ccc(C(C)(C)C)cc1S(=O)(=O)Nc1ccccc1OC`, for which the GI50 in the assay with DLD-1, in the assay on DMS-114, in the assay with DMS-273, in the assay on HOP-18, in the assay on M19-MEL and with SNB-78 was > 100 µM (inactive) each time.
`C[C@]12CCC(=O)C=C1CC[C@@H]1C2CC[C@]2(C)Nc3[nH]ncc3CC12` (stereo partly drawn): the GI50 in the assay on DLD-1, with DMS-114, with DMS-273, with LXFL 529, in the assay with M19-MEL and with SNB-78 was > 100 µM (inactive) in each case. For the same compound, in the assay on XF498, the GI50 is > 100 µM (inactive).
With `C/C(CC(=O)Nc1cc(Cl)c(Cl)cc1Cl)=N\NC(N)=O`, the GI50 in the assay with DLD-1, in the assay with DMS-114, in the assay on DMS-273, in the assay with LXFL 529, with M19-MEL and with RXF 631 was > 100 µM (inactive) each time. In addition, the GI50 in the assay with XF498 is > 100 µM (inactive).
Consider `O=C(Nc1ccccc1-c1n[nH]c(S)nc1=O)C(F)(F)F`, for which the GI50 in the assay with DLD-1, in the assay with DMS-114, in the assay with DMS-273, in the assay on LXFL 529, in the assay with M19-MEL and with SNB-78 was > 100 µM (inactive) in each case. The GI50 with XF498 was > 100 µM (inactive).
In the case of `Cn1c(=O)c2c(nc3n2C(CCl)CO3)n(C)c1=O` (stereo not drawn), the GI50 in the assay on DLD-1, in the assay with DMS-114, in the assay with DMS-273, in the assay with HOP-18, with M19-MEL and with RXF 631 was > 100 µM (inactive) in each case. Moreover, the GI50 in the assay on SNB-78 was > 100 µM (inactive).
For the compound `CN(C)CCN(C)CC1COC(C)(C)O1` (stereo not drawn), the GI50 in the assay on DLD-1, in the assay on DMS-273, in the assay with HOP-18, in the assay on LXFL 529, with M19-MEL and in the assay on SNB-78 was > 100 µM (inactive) throughout. Besides, the GI50 with XF498 is > 100 µM (inactive).
For the compound `CC1(C)OC2C(CO)OC(N/C(=N/C#N)Oc3ccccc3)C2O1` (stereo not drawn), the GI50 in the assay on DLD-1, with DMS-114, in the assay on DMS-273, in the assay on LXFL 529, with M19-MEL and with SNB-78 was > 100 µM (inactive) each time. Further, in the assay with XF498, the GI50 is > 100 µM (inactive).
Regarding `CC(=O)NC1C(OCc2ccccc2)OC(CO)C(O)C1OC(C)C(=O)N[C@@H](C)C(=O)N[C@H](CCC(=O)OCCNc1c2ccccc2nc2cccc([N+](=O)[O-])c12)C(N)=O` (stereo partly drawn), the GI50 with DLD-1 was 0.00139 µM (active); in the assay on DMS-273, 0.0016 µM (active); with HOP-18 it was 0.000354 µM (active); in the assay with LXFL 529, 0.000622 µM (active); in the assay with SNB-78, 0.0252 µM (active).
Regarding `Cc1c(N)nc(C2CC(=O)N2CC(N)C(N)=O)nc1C(=O)NC(C(=O)NC(C)C(O)C(C)C(=O)NC(C(=O)NCCc1nc(-c2nc(C(=O)NCCNCC(C)O)cs2)cs1)C(C)O)C(OC1OC(CO)C(O)C(O)C1OC1OC(CO)C(O)C(OC(N)=O)C1O)c1c[nH]cn1` (stereo not drawn), the GI50 with DLD-1 was 32.4 µM (inactive); in the assay with DMS-114, 0.397 µM (active); in the assay with DMS-273, 0.129 µM (active); in the assay on HOP-18, 13.4 µM (inactive); in the assay with LXFL 529, > 38 µM (inactive); in the assay with M19-MEL it was 5.04 µM (inactive). For the same compound, the GI50 is > 89.3 µM (inactive) in the assay with SNB-78 and 1.35 µM (inactive) in the assay with XF498.
For the compound `O=[N+]([O-])c1ccc(/C=C/c2ccc(/N=N/c3ccc(/C=C/c4ccc([N+](=O)[O-])cc4S(=O)(=O)O)c(S(=O)(=O)O)c3)cc2S(=O)(=O)O)c(S(=O)(=O)O)c1`, the GI50 in the assay on DLD-1 is > 100 µM (inactive); in the assay with DMS-114, > 100 µM (inactive); in the assay on DMS-273, > 71 µM (inactive); in the assay on HOP-18, > 74.6 µM (inactive); in the assay on M19-MEL, > 100 µM (inactive); in the assay on SNB-78, > 83.6 µM (inactive). The GI50 with XF498 was > 78 µM (inactive).
With `Cc1ccc(NC(=O)SCCC(=O)O)cc1`, the GI50 with DLD-1, in the assay with DMS-114, in the assay on DMS-273, in the assay with LXFL 529, with RXF 631 and in the assay on SNB-78 was > 100 µM (inactive) each time.
Turning to `O=C(c1ccccc1)c1nnn(Cc2cccc(Cl)c2)c1C(=O)c1ccccc1`, the GI50 in the assay with DLD-1 is > 100 µM (inactive); in the assay with DMS-114, 78 µM (inactive); with DMS-273, > 100 µM (inactive); with HOP-18, > 100 µM (inactive); in the assay with LXFL 529 it was 97.5 µM (inactive); in the assay with M19-MEL, > 100 µM (inactive). Further, the GI50 with SNB-78 and in the assay on XF498 was > 100 µM (inactive) throughout.
As for `C/C(=N\NC(=O)C(N)=O)c1c(O)cc(C)oc1=O`, the GI50 in the assay on DLD-1, with LXFL 529, in the assay on M19-MEL, in the assay on RXF 631 and in the assay on SNB-78 was > 100 µM (inactive) in each case.
On to `CC1CCC2(CC1)NN=c1s/c(=C\c3ccc(O)cc3)c(=O)n1N2` (stereo not drawn), for which the GI50 with DLD-1, in the assay with DMS-114, in the assay on DMS-273, with HOP-18, with LXFL 529 and in the assay with M19-MEL was > 100 µM (inactive) in each case. Further, the GI50 with SNB-78 and with XF498 was > 100 µM (inactive) each time.
Turning to `CN1CCCC2[C@@H]3CCC4c5nonc5CC[C@]4(C)C3CC[C@@]21C` (stereo partly drawn), the GI50 in the assay on DLD-1 is 51.1 µM (inactive); with DMS-114 it was > 100 µM (inactive); in the assay with DMS-273, 93.3 µM (inactive); with HOP-18 it was > 100 µM (inactive); with LXFL 529, 84.7 µM (inactive); with M19-MEL, 63.8 µM (inactive). Besides, the GI50 is > 100 µM (inactive) in the assay with SNB-78 and 24.4 µM (inactive) with XF498.
On to `O=C(Nc1ccn(CCOC(=O)c2ccccc2)c(=O)n1)c1ccccc1`, for which the GI50 in the assay on DMS-114, in the assay with DMS-273, in the assay with HOP-18, with LXFL 529, in the assay on M19-MEL and in the assay on SNB-78 was > 100 µM (inactive) throughout.
Consider `CCN1C(=O)N2C(OC)c3ccccc3C(Br)C2(OC)C1=O` (stereo not drawn), for which the GI50 in the assay with DLD-1, with DMS-114, in the assay on DMS-273, with LXFL 529, in the assay with M19-MEL and in the assay with RXF 631 was > 100 µM (inactive) in each case.
Regarding `O=c1[nH]c(-c2ccc([N+](=O)[O-])cc2)nc2ccc(Cl)cc12`, the GI50 in the assay on DMS-273 was > 100 µM (inactive); in the assay on LXFL 529 it was 44.2 µM (inactive); in the assay on M19-MEL it was > 100 µM (inactive); with SNB-78, > 100 µM (inactive).
`Cn1c(=O)c2ccccc2c2nc3ccccc3nc21`: the GI50 in the assay with DMS-114 was > 100 µM (inactive); with DMS-273, > 100 µM (inactive); with LXFL 529, > 100 µM (inactive); with M19-MEL, > 100 µM (inactive); in the assay on SNB-78, 68.7 µM (inactive).
With `CC(C)(C)c1ccc(OCCOCCOc2ccc(C(C)(C)C)cc2S(N)(=O)=O)c(S(N)(=O)=O)c1`, the GI50 is 99.5 µM (inactive) with DLD-1; 16.9 µM (inactive) in the assay with DMS-114; 72.6 µM (inactive) with DMS-273; > 100 µM (inactive) with HOP-18; > 100 µM (inactive) with M19-MEL; > 100 µM (inactive) in the assay with RXF 631. Moreover, the GI50 in the assay on SNB-78 was > 100 µM (inactive).
Regarding `CNC(=S)N(C)C(=S)Nn1c(=O)c(C)nn(C)c1=S`, the GI50 in the assay on DLD-1, with DMS-114, with DMS-273, in the assay with HOP-18, in the assay with LXFL 529 and with M19-MEL was > 100 µM (inactive) each time. The GI50 in the assay with SNB-78 was > 100 µM (inactive).
`CC(C)=CC1CC(=[N+]=[N-])C(=O)C1(C)C` (stereo not drawn): the GI50 with DLD-1 is > 100 µM (inactive); in the assay on DMS-114, > 58.3 µM (inactive); in the assay on HOP-18 it was > 100 µM (inactive); in the assay on LXFL 529 it was > 100 µM (inactive); with M19-MEL it was > 100 µM (inactive); in the assay with SNB-78, > 100 µM (inactive). Moreover, the GI50 in the assay on XF498 is > 100 µM (inactive).
In the case of `O=NN1C(c2ccccc2)C2CCCC(C2=O)C1c1ccccc1` (stereo not drawn), the GI50 is 43.3 µM (inactive) with DLD-1; 32.5 µM (inactive) in the assay with DMS-114; 23.8 µM (inactive) in the assay on DMS-273; 8.73 µM (inactive) with HOP-18; 18.9 µM (inactive) in the assay on M19-MEL; 40.3 µM (inactive) in the assay on SNB-78. The GI50 in the assay with XF498 is 13.6 µM (inactive).
For `CCSC(=O)N1c2ccc(OC)cc2C=CC1C#N` (stereo not drawn), the GI50 is < 0.01 µM (active) with DLD-1; < 0.01 µM (active) with DMS-114; < 0.01 µM (active) in the assay on DMS-273; < 0.01 µM (active) with LXFL 529; < 0.01 µM (active) in the assay with M19-MEL; 51.8 µM (inactive) in the assay on SNB-78. Also, in the assay on XF498, the GI50 is < 0.01 µM (active).
In the case of `CC12CCCC(C#N)(C1)OC2=O` (stereo not drawn), the GI50 with DLD-1, in the assay on DMS-273, in the assay with LXFL 529, in the assay with M19-MEL, in the assay on RXF 631 and with SNB-78 was > 100 µM (inactive) each time. Also, in the assay on XF498, the GI50 was > 100 µM (inactive).
In the case of `Nc1nc2[nH]c(=O)cnc2c(=O)[nH]1` [ISOXANTHOPTERIN], the GI50 with DLD-1 is > 125 µM (inactive); with DMS-114, > 125 µM (inactive); in the assay on DMS-273 it was > 125 µM (inactive); in the assay with HOP-18 it was > 5.81 µM (inactive); with M19-MEL, > 85.1 µM (inactive); in the assay on SNB-78, > 125 µM (inactive). For the same compound, in the assay on XF498, the GI50 was 10.6 µM (inactive).
